{
  "source": "patent US20020115661A1",
  "about": "“Method for treating chronic obstructive pulmonary disease” (priority 2000, published 2002)",
  "key": {"[1]": {"system": "acute hypoxia-induced pulmonary hypertension", "experiment": "Pulmonary hypertension in response to acute hypoxia in rats", "format": "in vivo, rat", "method": "Exposure to hypoxia produces an acute pulmonary hypertensive response in the rat. […] The hypothesis has since been tested through blockade of the hypertensive response with several ET antagonists. The antihypertensive dose of CI-1034 was determined in response to acute hypoxia.\nHeparinized plasma samples were collected 10 minutes after the final MPAP measurement was made."}, "[2]": {"experiment": "Dissociation constant by potentiometric titration in water", "format": "physicochemical", "details": "carboxylic acid group, read-out: apparent pKa"}, "[3]": {"system": "chronic hypoxia-induced pulmonary hypertension and RV hypertrophy", "experiment": "Pulmonary hypertension and right ventricular hypertrophy in rats exposed to chronic hypoxia", "format": "in vivo, rat", "details": "for average MPAP: hypoxic rats, days 10-20 of hypoxia", "text": "Rats were exposed to hypoxia for an additional 10 days during treatment (20 days total). A separate group of age-matched rats treated with diet alone (20 days) and no exposure to hypoxia served as normoxic controls. Blood samples, pulmonary artery pressures, and cardiac right and left ventricles were collected at the end of the 20-day protocol.\nRats exposed to 20 days of hypoxia had MPAP of 43±2 mm Hg which averaged 30 mm Hg higher than normal (13±0 mm Hg).\nHeparinized plasma samples were collected approximately 1 hour before MPAP was measured.\nThe right ventricular hypertrophic response to hypoxia was estimated by comparing the ratio of right ventricular free wall weight to left ventricle plus septum weight (RV/LV+S) between hypoxic and normoxic control groups. Using this index, rats exposed to hypoxia had right ventricular free walls that were more than twice control (0.57±0.03 versus 0.24±0.1)."}, "[4]": {"experiment": "Plasma CI-1034 concentrations in anesthetized dogs", "format": "in vivo, dog", "details": "for concentration at 5 min: plasma, intravenous", "method": "(§1) Each animal received each treatment and served as its own control, with 7 days between treatments. […] Pulmonary function parameters were evaluated for 60 minutes after each dose, and included minute volume, respiratory rate, resistance, compliance, peak inspiratory and expiratory volumes, and tidal volume. Indirect blood pressure measurements were made periodically throughout the pulmonary data collection period since endothelin receptor antagonists are known to induce hypotension.\n(§2) Plasma concentration in this dog 5 minutes postdose was 1960 μg/mL."}, "anesthetized dogs": {"system": "anesthetized dogs", "experiment": "Pulmonary function in anesthetized dogs", "format": "in vivo, dog", "method": "as §1, §2"}, "ETA receptor": {"biological_target": "T1, ETA receptor (Oryctolagus cuniculus, UniProt A5A8K3)", "T1 sequence (A5A8K3 21-427)": "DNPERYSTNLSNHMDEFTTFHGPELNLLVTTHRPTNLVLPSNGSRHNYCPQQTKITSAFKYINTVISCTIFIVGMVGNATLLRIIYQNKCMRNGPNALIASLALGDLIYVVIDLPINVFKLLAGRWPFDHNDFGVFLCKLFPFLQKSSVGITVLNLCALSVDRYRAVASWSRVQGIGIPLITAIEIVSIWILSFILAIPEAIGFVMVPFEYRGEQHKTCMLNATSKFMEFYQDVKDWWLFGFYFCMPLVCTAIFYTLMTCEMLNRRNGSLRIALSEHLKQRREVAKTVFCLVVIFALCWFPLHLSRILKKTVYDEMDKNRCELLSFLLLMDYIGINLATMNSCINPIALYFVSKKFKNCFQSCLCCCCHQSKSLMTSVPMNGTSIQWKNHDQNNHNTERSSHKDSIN", "experiment": "ET-1 induced contraction in isolated rabbit femoral artery", "method": "In rabbit femoral artery vasculature, the receptor responsible for mediating the contractile activity of ET-1 appears to be predominantly the ETA receptor subtype, whereas in the rabbit pulmonary artery the contractile activity of ET-1 appears to be mediated by both ETA and ETB receptors.\nIn rabbit femoral and pulmonary arteries, ET-1 produced concentration-dependent increases in contractile tension starting at 1 nM."}, "dog ETA receptors": {"biological_target": "T2, dog ETA receptors (Canis lupus familiaris, UniProt Q5KSU9)", "T2 construct": "from tissue", "T2 sequence (Q5KSU9 21-426)": "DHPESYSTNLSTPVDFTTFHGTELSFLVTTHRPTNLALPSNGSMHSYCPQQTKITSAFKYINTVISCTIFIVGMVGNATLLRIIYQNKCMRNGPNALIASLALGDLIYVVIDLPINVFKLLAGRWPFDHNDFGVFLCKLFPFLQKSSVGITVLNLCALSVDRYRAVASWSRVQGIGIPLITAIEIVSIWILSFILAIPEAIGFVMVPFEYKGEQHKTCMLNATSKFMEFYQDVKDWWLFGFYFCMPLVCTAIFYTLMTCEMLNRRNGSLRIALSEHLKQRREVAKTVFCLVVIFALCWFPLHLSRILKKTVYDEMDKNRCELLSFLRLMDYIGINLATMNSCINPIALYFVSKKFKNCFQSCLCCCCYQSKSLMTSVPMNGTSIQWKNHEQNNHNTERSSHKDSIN", "experiment": "[125I]ET-1 binding, membranes from dog cardiac ventricle", "text": "Relative binding activities are given below in TABLE 3."}, "[5]": {"biological_target": "T3, human ETA receptor signaling (Homo sapiens, UniProt P25101)", "T3 construct": "endogenous in cells; host or cells: human pulmonary artery smooth muscle cells (hPASMC)", "T3 sequence (P25101 21-427)": "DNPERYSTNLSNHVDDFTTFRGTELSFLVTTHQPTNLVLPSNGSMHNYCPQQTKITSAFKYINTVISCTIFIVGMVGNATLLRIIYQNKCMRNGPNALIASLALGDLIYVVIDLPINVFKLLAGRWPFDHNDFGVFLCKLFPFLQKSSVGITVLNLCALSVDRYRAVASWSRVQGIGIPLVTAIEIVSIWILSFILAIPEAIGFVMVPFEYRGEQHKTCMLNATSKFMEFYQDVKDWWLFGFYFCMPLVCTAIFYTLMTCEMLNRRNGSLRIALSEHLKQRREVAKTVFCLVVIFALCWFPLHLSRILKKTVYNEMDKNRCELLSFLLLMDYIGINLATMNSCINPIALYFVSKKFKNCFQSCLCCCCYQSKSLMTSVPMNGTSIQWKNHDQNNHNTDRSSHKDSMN", "experiment": "ET-1 induced Ca2+ transient (Calcium Green-1) in human pulmonary artery smooth muscle cells", "format": "cell-based", "details": "hPASMC, ET-1 100 nM; read-out: IC50, inhibition of ET-1 Ca2+ response"}, "[6]": {"details": "anesthetized dogs, 30 or 60 mg/kg"}},
  "data": [
    {"smiles": "CCc1cc(C2=C(C(=O)[O-])N(c3ccccc3C(F)(F)F)S(=O)(=O)c3ccccc32)cc2c1OCO2.[K+]", "note": "[CI-1034, 4-(7-Ethyl-1,3-benzodioxol-5-yl)-2-[2-(trifluoromethyl)phenyl]-2H-1 ,2-benzothiazine-3-carboxylic acid 1,1-dioxide monopotassium salt]", "values": [
      {"measurement": "ED50", "setting": "[1]; Rattus norvegicus, rats, PO, relative to hypoxic control, read-out: ED50, inhibition of acute pulmonary hypertensive response", "value": 0.8, "unit": "mg/kg"},
      {"measurement": "EC50", "setting": "[1]; Rattus norvegicus, simple Emax model, acute hypoxia, read-out: plasma concentration predicted to produce half-maximal effect", "value": "0.03 ± 0.03", "unit": "µg/mL"},
      {"measurement": "reduction of peak pulmonary hypertensive response at 4 hours", "setting": "[1]; rats, 0.3 mg/kg PO 30 minutes before hypoxia (10% O2)", "value": "34%±1%"},
      {"measurement": "reduction of peak pulmonary hypertensive response at 4 hours", "setting": "[1]; rats, 3.0 mg/kg PO 30 minutes before hypoxia (10% O2)", "value": "70%±3%"},
      {"measurement": "predicted maximal antihypertensive effect", "setting": "[1]; simple Emax model, acute hypoxia", "value": "81%±23%"},
      {"measurement": "pKa", "setting": "[2]", "value": 3.9},
      {"measurement": "EC50", "setting": "[3]; Rattus norvegicus, simple Emax model, chronic hypoxia, read-out: plasma concentration predicted to produce half-maximal effect", "value": "0.32 ± 0.25", "unit": "µg/mL"},
      {"measurement": "average MPAP", "setting": "[3]; 25 mg/kg/day in diet", "value": "37±2", "unit": "mm Hg"},
      {"measurement": "average MPAP", "setting": "[3]; 50 mg/kg/day in diet", "value": "33±0", "unit": "mm Hg"},
      {"measurement": "average MPAP", "setting": "[3]; 100 mg/kg/day in diet", "value": "29±2", "unit": "mm Hg"},
      {"measurement": "predicted maximal antihypertensive effect", "setting": "[3]; simple Emax model, chronic hypoxia", "value": "60%±18%"},
      {"measurement": "plasma concentration versus dose", "setting": "[4]; anesthetized dogs", "value": "increased proportionally with dose"},
      {"measurement": "Plasma Concentration", "setting": "[4]; dog, 180 mg/kg, 5 minutes postdose, N = 1", "value": 1960, "unit": "µg/mL"},
      {"measurement": "exposure relative to projected human therapeutic Cmax of […]", "setting": "[4]; dogs, 30 and 60 mg/kg, plasma 5 minutes postdose", "value": "at least 940 times"},
      {"measurement": "concentration at 5 min", "setting": "[4]; dog, 30 mg/kg, 5 minutes postdose", "value": 301, "unit": "µg/mL"},
      {"measurement": "concentration at 5 min", "setting": "[4]; dog, 60 mg/kg, 5 minutes postdose", "value": 574, "unit": "µg/mL"},
      {"measurement": "effects on pulmonary function", "setting": "anesthetized dogs; anesthetized dog, 40 mg/kg intravenous, one animal", "value": "No effects were apparent"},
      {"measurement": "pulmonary finding", "setting": "anesthetized dogs; anesthetized dog, 180 mg/kg intravenous, within 5 minutes postdose, one animal", "value": "Respiratory arrest"},
      {"measurement": "effect on blood pressure", "setting": "anesthetized dogs; [6]", "value": "no significant effect"},
      {"measurement": "effect on minute volume, pulmonary resistance, or pulmonary compliance", "setting": "anesthetized dogs; [6]", "value": "no effect"},
      {"measurement": "histopathology, lungs", "setting": "anesthetized dogs; dog that died after 180 mg/kg", "value": "marked bilateral diffuse congestion"},
      {"measurement": "histopathology, coronary arteries", "setting": "anesthetized dogs; dog that died after 180 mg/kg, mild, primarily right coronary arteries", "value": "Arteriopathy"},
      {"measurement": "mortality", "setting": "anesthetized dogs; dog, 180 mg/kg intravenous, one animal", "value": "found dead on Day 3"},
      {"measurement": "potency at blocking ETA versus ETB receptor signaling", "setting": "ETA receptor; isolated rabbit vasculature, femoral versus pulmonary artery KB", "value": 389, "unit": "fold"},
      {"measurement": "effect on ET-1 induced maximal contraction", "setting": "ETA receptor; rabbit femoral artery", "value": "not affected"},
      {"measurement": "Schild regression slope", "setting": "ETA receptor; rabbit femoral artery, r=0.99", "value": 0.88},
      {"measurement": "IC50", "setting": "dog ETA receptors", "value": 2, "unit": "nM"},
      {"measurement": "IC50", "setting": "[5]", "value": 0.22, "unit": "nM"}
    ]}
  ]
}
